Legend:
[1] = target: T1, aryl hydrocarbon receptor (AhR) (Homo sapiens, UniProt P35869); test: AhR reporter gene assay (aryl hydrocarbon receptor antagonist activity, DRE-Luc HepG2 cells, TCDD-stimulated luciferase); assay type: cell-based
T1 construct: DRE-Luc HepG2 cells subcultured in a 225 cm^2 flask; endogenous in cells; host or cells: HepG2 (ATCC), stably transfected with the reporter hCYP1A1/pGL4.27 (DRE-Luc HepG2)
T1 sequence (P35869 11-848): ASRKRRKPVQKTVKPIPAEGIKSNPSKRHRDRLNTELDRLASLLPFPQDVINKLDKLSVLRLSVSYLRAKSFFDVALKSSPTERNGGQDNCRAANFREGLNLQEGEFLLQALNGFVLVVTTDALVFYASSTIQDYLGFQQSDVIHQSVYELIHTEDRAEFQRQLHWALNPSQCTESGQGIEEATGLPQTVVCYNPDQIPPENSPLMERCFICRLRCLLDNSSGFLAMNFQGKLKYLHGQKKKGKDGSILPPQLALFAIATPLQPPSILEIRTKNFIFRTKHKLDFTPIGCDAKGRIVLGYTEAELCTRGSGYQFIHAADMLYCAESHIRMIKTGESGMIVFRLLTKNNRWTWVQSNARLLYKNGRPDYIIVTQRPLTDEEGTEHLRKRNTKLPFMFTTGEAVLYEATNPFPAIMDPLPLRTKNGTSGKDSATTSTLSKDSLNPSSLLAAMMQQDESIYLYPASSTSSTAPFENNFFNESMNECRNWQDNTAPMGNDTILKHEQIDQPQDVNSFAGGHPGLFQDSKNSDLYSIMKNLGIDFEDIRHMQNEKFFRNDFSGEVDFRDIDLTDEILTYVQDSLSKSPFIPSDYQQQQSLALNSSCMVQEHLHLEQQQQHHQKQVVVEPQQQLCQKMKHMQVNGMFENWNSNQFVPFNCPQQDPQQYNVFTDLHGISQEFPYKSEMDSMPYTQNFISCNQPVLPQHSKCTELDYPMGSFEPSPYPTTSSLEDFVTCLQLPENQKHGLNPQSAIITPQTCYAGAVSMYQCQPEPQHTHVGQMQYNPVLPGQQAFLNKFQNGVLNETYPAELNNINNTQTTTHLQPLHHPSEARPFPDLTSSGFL
Summary of the method: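 HepG2 cells stably carrying a human CYP1A1 promoter/DRE-driven luciferase reporter were pretreated with compound for 24 h at 37°C. TCDD (5×10^−10 M in the added solution) was then added for a further 24 h. Firefly luciferase luminescence was read as the measure of antagonism.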

[2] = tested on: immortalized megakaryocyte line (SeV2-MKCL); test: Platelet production: static culturing of immortalized megakaryocyte line; assay type: cell-based; conditions: compound final concentration 0.1 μM, static culturing 6 to 7 days, control (DMSO) set to 1; platelets = CD41, CD42b and CD42a-positive cells
Summary of the method: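 SeV2-MKCL cells, washed free of doxycycline to stop forced expression, seeded at 1×10^5 cells/mL in IMDM-based medium with compound (final 0.1 μM) or DMSO, static culture 6–7 days, 37° C., 5% CO2. CD41/CD42a/CD42b-positive platelets counted by bead-corrected flow cytometry; platelets per megakaryocyte expressed as fold over DMSO control.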

SMILES	IC50 [1]	Static (vs veh): fold increase of platelet production efficiency (PLT/MK) [2]
Cc1cncc(-c2cc(CCNc3nc(-c4cncc(F)c4)nc4c3nc3n4[C@H](C)CS3)ccc2O)c1 [Example 74]	0.0047 µM	3.5
CC1(C)CSc2nc3c(NCCc4ccc(O)c(-c5cncc(C#N)c5)c4)nc(-c4cncc(F)c4)nc3n21 [Example 76]	0.0057 µM	2.4
C[C@@H]1COc2nc3c(NCCc4ccc(O)c(-c5cncc(C#N)c5)c4)nc(-c4cncc(F)c4)nc3n21 [Example 77]	0.0092 µM	3.5
CC1(C)COc2nc3c(NCCc4ccc(O)c(-c5cccc(S(C)(=O)=O)c5)c4)nc(-c4cncc(F)c4)nc3n21 [Example 78]	0.0039 µM	4.3
CN(C)C(=O)Cc1cccc(-c2cc(CCNc3nc(-c4cncc(F)c4)nc4c3nc3n4C(C)(C)CO3)ccc2O)c1 [Example 79]	0.0066 µM	2.9
CC1(C)COc2nc3c(NCCc4c[nH]c5ccccc45)nc(-c4cccc(F)c4)nc3n21 [Example 85]	0.027 µM	6.1
CC1(C)COc2nc3c(NCCc4c[nH]c5ccccc45)nc(-c4cccc(F)c4F)nc3n21 [Example 86]	0.021 µM	4.4
CC1(C)COc2nc3c(NCCc4c[nH]c5ccccc45)nc(-c4cc(F)ccc4F)nc3n21 [Example 87]	0.038 µM	3.9
CC1(C)COc2nc3c(NCCc4c[nH]c5ccccc45)nc(-c4cncc(C#N)c4)nc3n21 [Example 92]	0.033 µM	2.6
CC1(C)COc2nc3c(NCCc4c[nH]c5ccccc45)nc(-c4cccnc4)nc3n21 [Example 94]	0.039 µM	2.6
Cc1cncc(-c2nc(NCCc3c[nH]c4ccccc34)c3nc4n(c3n2)C(C)(C)CS4)c1 [Example 96]	0.039 µM	2.7
CC1(C)COc2nc3c(NCCc4c[nH]c5ccccc45)nc(-c4cncc(C(F)F)c4)nc3n21 [Example 101]	0.029 µM	3.8
C[C@@H]1C[S+]([O-])c2nc3c(NCCc4c[nH]c5ccccc45)nc(-c4cncc(F)c4)nc3n21 (some centres unmarked) [Example 108]	0.0041 µM	6.6
Fc1cncc(-c2nc(NCCc3c[nH]c4ccccc34)c3nc4n(c3n2)CCCS4)c1 [Example 109]	0.011 µM	7.8
CC1(C)COc2nc3c(NCCc4c[nH]c5ccccc45)nc(-c4ccc5nccn5c4)nc3n21 [Example 110]	0.04 µM	6.1
CC1(C)COc2nc3c(NCCc4c[nH]c5ccccc45)nc(-c4ccc5ncnn5c4)nc3n21 [Example 111]	0.04 µM	7.0

From US11932657B2, “Heterocyclic compound” (priority 2018, dated 2024)
